Legend:
Type in all cases: functional
Escherichia coli [1] = assay: Antibacterial activity against Escherichia coli ATCC 25922 assessed as inhibition of bacterial growth incubated for 18 hrs by two fold broth microdilution assay
Pseudomonas aeruginosa [2] = assay: Antibacterial activity against multi-drug resistant Pseudomonas aeruginosa clinical isolate 114228 assessed as inhibition of bacterial growth incubated for 18 hrs by two fold broth microdilution assay
Acinetobacter baumannii [3] = assay: Antibacterial activity against multi-drug resistant Acinetobacter baumannii clinical isolate 92247 assessed as inhibition of bacterial growth incubated for 18 hrs by two fold broth microdilution assay
Pseudomonas aeruginosa [4] = assay: Antibiotic adjuvant activity against multi-drug resistant Pseudomonas aeruginosa clinical isolate PA262 assessed as rifampicin MIC incubated for 18 hrs in presence of Rifampicin by two fold broth microdilution checkerboard assay
Acinetobacter baumannii [5] = assay: Antibiotic adjuvant activity against multi-drug resistant Acinetobacter baumannii clinical isolate LAC-4 assessed as rifampicin MIC incubated for 18 hrs in presence of Rifampicin by two fold broth microdilution checkerboard assay
Pseudomonas aeruginosa [6] = assay: Antibiotic adjuvant activity against multi-drug resistant Pseudomonas aeruginosa clinical isolate PA262 assessed as inhibition of bacterial growth incubated for 18 hrs in presence of Rifampicin by two fold broth microdilution checkerboard assay
Escherichia coli [7] = assay: Antibiotic adjuvant activity against multi-drug resistant Escherichia coli clinical isolate 94393 assessed as inhibition of bacterial growth incubated for 18 hrs in presence of Rifampicin by two fold broth microdilution checkerboard assay
Acinetobacter baumannii [8] = assay: Antibiotic adjuvant activity against multi-drug resistant Acinetobacter baumannii clinical isolate AB027 assessed as inhibition of bacterial growth incubated for 18 hrs in presence of Rifampicin by two fold broth microdilution checkerboard assay
Acinetobacter baumannii [9] = assay: Antibiotic adjuvant activity against multi-drug resistant Acinetobacter baumannii clinical isolate 92247 assessed as inhibition of bacterial growth incubated for 18 hrs in presence of Rifampicin by two fold broth microdilution checkerboard assay
Pseudomonas aeruginosa [10] = assay: Antibiotic adjuvant activity against multi-drug resistant Pseudomonas aeruginosa clinical isolate 114228 assessed as fold potentiation incubated for 18 hrs in presence of Rifampicin by two fold broth microdilution checkerboard assay
Escherichia coli [11] = assay: Antibiotic adjuvant activity against multi-drug resistant Escherichia coli clinical isolate 94474 assessed as fold potentiation incubated for 18 hrs in presence of Rifampicin by two fold broth microdilution checkerboard assay
Escherichia coli [12] = assay: Antibiotic adjuvant activity against multi-drug resistant Escherichia coli clinical isolate 107115 assessed as fractional inhibitory concentration index incubated for 18 hrs in presence of Rifampicin by two fold broth microdilution checkerboard assay
Escherichia coli [13] = assay: Antibiotic adjuvant activity against multi-drug resistant Escherichia coli clinical isolate 94393 assessed as fractional inhibitory concentration index incubated for 18 hrs in presence of Rifampicin by two fold broth microdilution checkerboard assay
Escherichia coli [14] = assay: Antibiotic adjuvant activity against multi-drug resistant Escherichia coli clinical isolate 94474 assessed as fractional inhibitory concentration index incubated for 18 hrs in presence of Rifampicin by two fold broth microdilution checkerboard assay
Acinetobacter baumannii [15] = assay: Antibiotic adjuvant activity against multi-drug resistant Acinetobacter baumannii clinical isolate 92247 assessed as fractional inhibitory concentration index incubated for 18 hrs in presence of Rifampicin by two fold broth microdilution checkerboard assay
Pseudomonas aeruginosa [16] = assay: Antibiotic adjuvant activity against multi-drug resistant Pseudomonas aeruginosa clinical isolate PA262 assessed as minocycline MIC incubated for 18 hrs in presence of minocycline by two fold broth microdilution checkerboard assay
Escherichia coli [17] = assay: Antibiotic adjuvant activity against multi-drug resistant Escherichia coli clinical isolate EC107115 assessed as minocycline MIC incubated for 18 hrs in presence of minocycline by two fold broth microdilution checkerboard assay
Escherichia coli [18] = assay: Antibiotic adjuvant activity against multi-drug resistant Escherichia coli clinical isolate EC94474 assessed as minocycline MIC incubated for 18 hrs in presence of minocycline by two fold broth microdilution checkerboard assay
Escherichia coli [19] = assay: Antibiotic adjuvant activity against multi-drug resistant Escherichia coli clinical isolate EC94474 assessed as inhibition of bacterial growth incubated for 18 hrs in presence of minocycline by two fold broth microdilution checkerboard assay
Pseudomonas aeruginosa [20] = assay: Antibiotic adjuvant activity against multi-drug resistant Pseudomonas aeruginosa clinical isolate PA101243 assessed as fold potentiation incubated for 18 hrs in presence of minocycline by two fold broth microdilution checkerboard assay
Escherichia coli [21] = assay: Antibiotic adjuvant activity against multi-drug resistant Escherichia coli clinical isolate EC107115 assessed as fold potentiation incubated for 18 hrs in presence of minocycline by two fold broth microdilution checkerboard assay
Pseudomonas aeruginosa [22] = assay: Antibiotic adjuvant activity against multi-drug resistant Pseudomonas aeruginosa clinical isolate PA264 assessed as fractional inhibitory concentration index incubated for 18 hrs in presence of minocycline by two fold broth microdilution checkerboard assay
Pseudomonas aeruginosa [23] = assay: Antibiotic adjuvant activity against multi-drug resistant Pseudomonas aeruginosa clinical isolate PA259 assessed as doxycycline MIC incubated for 18 hrs in presence of doxycycline by two fold broth microdilution checkerboard assay
Pseudomonas aeruginosa [24] = assay: Antibiotic adjuvant activity against multi-drug resistant Pseudomonas aeruginosa clinical isolate PA259 assessed as inhibition of bacterial growth incubated for 18 hrs in presence of doxycycline by two fold broth microdilution checkerboard assay
Pseudomonas aeruginosa [25] = assay: Antibiotic adjuvant activity against multi-drug resistant Pseudomonas aeruginosa clinical isolate PA101243 assessed as fold potentiation incubated for 18 hrs in presence of doxycycline by two fold broth microdilution checkerboard assay
Pseudomonas aeruginosa [26] = assay: Antibiotic adjuvant activity against multi-drug resistant Pseudomonas aeruginosa clinical isolate PA259 assessed as fractional inhibitory concentration index incubated for 18 hrs in presence of doxycycline by two fold broth microdilution checkerboard assay
Escherichia coli [27] = assay: Antibiotic adjuvant activity against multi-drug resistant Escherichia coli clinical isolate EC94474 assessed as fractional inhibitory concentration index incubated for 18 hrs in presence of doxycycline by two fold broth microdilution checkerboard assay
Enterococcus faecium [28] = assay: Antibiotic adjuvant activity against Enterococcus faecium 128149 assessed as rifampicin MIC incubated for 18 hrs in presence of rifampicin by two fold broth microdilution checkerboard assay
Enterococcus faecium [29] = assay: Antibiotic adjuvant activity against Enterococcus faecium 114278 assessed as fractional inhibitory concentration index incubated for 18 hrs in presence of rifampicin by two fold broth microdilution checkerboard assay
Acinetobacter baumannii [30] = assay: Antibiotic adjuvant activity against Acinetobacter baumannii ATCC 17978 assessed as fold potentiation incubated for 18 hrs in presence of Rifampicin by two fold broth microdilution checkerboard assay
Acinetobacter baumannii [31] = assay: Antibiotic adjuvant activity against Acinetobacter baumannii ATCC 17978 assessed as fold potentiation incubated for 18 hrs in presence of novobiocin by two fold broth microdilution checkerboard assay
Acinetobacter baumannii [32] = assay: Antibiotic adjuvant activity against Acinetobacter baumannii ATCC 17978 assessed as fold potentiation incubated for 18 hrs in presence of vancomycin by two fold broth microdilution checkerboard assay
Acinetobacter baumannii [33] = assay: Antibiotic adjuvant activity against Acinetobacter baumannii ATCC 17978 assessed as fold potentiation incubated for 18 hrs in presence of rifampicin and CAMHB Na+ media by two fold broth microdilution checkerboard assay
Acinetobacter baumannii [34] = assay: Antibiotic adjuvant activity against Acinetobacter baumannii ATCC 17978 assessed as fold potentiation incubated for 18 hrs in presence of rifampicin and FBS media by two fold broth microdilution checkerboard assay
Acinetobacter baumannii [35] = assay: Antibiotic adjuvant activity against Acinetobacter baumannii ATCC 17978 assessed as novobiocin MIC incubated for 18 hrs in presence of novobiocin by two fold broth microdilution checkerboard assay
Escherichia coli [36] = assay: Antibiotic adjuvant activity against Escherichia coli ATCC 25922 assessed as minocycline MIC incubated for 18 hrs in presence of minocycline by two fold broth microdilution checkerboard assay

In the case of `Cl.NC[C@H]1O[C@H](O[C@H]2[C@H](OCc3ccccc3)[C@@H](O[C@H]3O[C@H](COCc4ccccc4)[C@@H](OCc4ccccc4)[C@H](N)[C@H]3OCc3ccccc3)[C@H](N)C[C@@H]2N)[C@H](N)C[C@@H]1OCc1ccccc1`, the MIC (Escherichia coli [1]) is reported as 32 µg/mL, the MIC (Pseudomonas aeruginosa [2]) is reported as 64 µg/mL and the MIC (Acinetobacter baumannii [3]) is reported as 32 µg/mL. It also gave an MIC (Pseudomonas aeruginosa [4]) of 512 µg/mL, an MIC (Acinetobacter baumannii [5]) of 0.002 µg/mL and an MIC (Pseudomonas aeruginosa [6]) of 8 µg/mL. The MIC (Escherichia coli [7]) was 8 µg/mL, the MIC (Acinetobacter baumannii [8]) was 8 µg/mL and the MIC (Acinetobacter baumannii [9]) was 8 µg/mL. The “fold change (FC)” value (Pseudomonas aeruginosa [10]) was 1, the “fold change (FC)” value (Escherichia coli [11]) was 256 and the “fractional inhibitory concentration index (FICI)” value (Escherichia coli [12]) was 0.063. The “fractional inhibitory concentration index (FICI)” value (Escherichia coli [13]) was 1.25, the “fractional inhibitory concentration index (FICI)” value (Escherichia coli [14]) was 0.129 and the “fractional inhibitory concentration index (FICI)” value (Acinetobacter baumannii [15]) was 0.252. For the same molecule, the MIC (Pseudomonas aeruginosa [16]) was 256 µg/mL, the MIC (Escherichia coli [17]) was 1 µg/mL and the MIC (Escherichia coli [18]) was 1 µg/mL. For the same molecule, the MIC (Escherichia coli [19]) was 8 µg/mL, the “fold change (FC)” value (Pseudomonas aeruginosa [20]) was 1 and the “fold change (FC)” value (Escherichia coli [21]) was 32. For the same molecule, the “fractional inhibitory concentration index (FICI)” value (Pseudomonas aeruginosa [22]) was 0.563, the MIC (Pseudomonas aeruginosa [23]) was 256 µg/mL and the MIC (Pseudomonas aeruginosa [24]) was 8 µg/mL. The “fold change (FC)” value (Pseudomonas aeruginosa [25]) was 1, the “fractional inhibitory concentration index (FICI)” value (Pseudomonas aeruginosa [26]) was 1.063 and the “fractional inhibitory concentration index (FICI)” value (Escherichia coli [27]) was 0.188. For the same molecule, the MIC (Enterococcus faecium [28]) was 8 µg/mL, the “fractional inhibitory concentration index (FICI)” value (Enterococcus faecium [29]) was 1.5 and the “fold change (FC)” value (Acinetobacter baumannii [30]) was 8. For the same molecule, the “fold change (FC)” value (Acinetobacter baumannii [31]) was 2048, the “fold change (FC)” value (Acinetobacter baumannii [32]) was 8 and the fold change (FC) (Acinetobacter baumannii [33]) was 256. The “fold change (FC)” value (Acinetobacter baumannii [34]) was 4, the MIC (Acinetobacter baumannii [35]) was 0.5 µg/mL and the MIC (Escherichia coli [36]) was 8 µg/mL.

Reference: ChEMBL document CHEMBL5335843, “Application of tobramycin benzyl ether as an antibiotic adjuvant capable of sensitizing multidrug-resistant Gram-negative bacteria to rifampicin” (2024)
